From US20250388582A1, “NOVEL BICYCLIC HETEROARYL COMPOUND AND USE THEREOF” (ILDONG PHARMACEUTICAL CO., LTD., priority 2022, published 2025) come the findings set out here.

pIC50: −log10 of the molar value.

One experiment concerns the target T1, human GST-PIKFYVE (Homo sapiens, UniProt Q9Y2I7).
T1 construct: GST; purchased Carna biosciences 11-118
In words: ADP-Glo kinase assay, enzyme inhibition activity against human PIKFYVE (Carna biosciences). The class given is biochemical. Particulars: inhibitory activity at final compound concentration 10 nM; 1 hour at room temperature. Put shortly: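 Human GST-PIKFYVE (glutathione Sepharose-purified) was reacted with substrate and ATP for 1 h at room temperature in 50 mM MOPS, 1 mM DTT, pH 7.2, with compound at 10 nM final. ADP formed was read by ADP-Glo luminescence; inhibition was calculated against no-enzyme (100%) and no-compound (0%) controls.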
(In general: ADP-Glo turns the ADP formed in a reaction into a luminescent signal.)

The target of the next experiment is T2, PIKFYVE (Homo sapiens, UniProt Q9Y2I7).
T2 construct: host or cells: HEK293 (ATCC, CRL-1573)
The experiment in a line: NanoBRET TE Intracellular Kinase Assay, interaction of PIKFYVE and compounds in HEK293 cells. The format is cell-based. To be noted: IC50 class from BRET; HEK293 cells expressing PIKFYVE-NanoLuc; 2 hours incubation. How it is done:
To predict the efficacy of the compounds according to Example on PIKFYVE in humans, the interaction between PIKFYVE and the compounds was tested using the HEK293 cell line derived from human embryonic kidney (ATCC, CRL-1573) via NanoBRETT TE Intracellular Kinase Assay Service of Carna biosciences Inc., (Japan). The evaluation method provided by Carna biosciences Inc., was shown below and the NanoBRET™ TE Intracellular Kinase Assay, K-8 Kit (Promega, CS1810C88) was used.
The HEK-293 cells cultured in Opti-MEM™ I Reduced Serum Medium (Thermo Fisher, 11058-021) were transfected with Transfection Carrier DNA (Promega, E4881), PIKFYVE-NanoLuc Fusion Vector (Promega, CS1810C225), and FuGENE HD Transfection Reagent (Promega, E2311) to produce cells expressing genes combining PIKFYVE and NanoLuc, followed by culturing 100 μl (2×10^5 cells/ml) each in 96-well plates (Corning, 3917).
10× compounds according to Examples or Comparative Examples prepared by concentration in 1× NanoBRET™ tracer reagent and DMSO were reacted in 96-well plates and incubated for 2 hours in a 37° C., 5% CO2 incubator.
After the reaction was completed, 3× Complete NanoBRET™ Nano-Glo Substrate solution was added to each well, and the reaction was allowed to run for 2-3 minutes at room temperature before BRET was measured using a GloMax Discover Multimode Microplate Reader (Promega).
For orientation: Bioluminescence resonance energy transfer reports proximity on the nanometre scale.

T1 sequence (Q9Y2I7 whole entry): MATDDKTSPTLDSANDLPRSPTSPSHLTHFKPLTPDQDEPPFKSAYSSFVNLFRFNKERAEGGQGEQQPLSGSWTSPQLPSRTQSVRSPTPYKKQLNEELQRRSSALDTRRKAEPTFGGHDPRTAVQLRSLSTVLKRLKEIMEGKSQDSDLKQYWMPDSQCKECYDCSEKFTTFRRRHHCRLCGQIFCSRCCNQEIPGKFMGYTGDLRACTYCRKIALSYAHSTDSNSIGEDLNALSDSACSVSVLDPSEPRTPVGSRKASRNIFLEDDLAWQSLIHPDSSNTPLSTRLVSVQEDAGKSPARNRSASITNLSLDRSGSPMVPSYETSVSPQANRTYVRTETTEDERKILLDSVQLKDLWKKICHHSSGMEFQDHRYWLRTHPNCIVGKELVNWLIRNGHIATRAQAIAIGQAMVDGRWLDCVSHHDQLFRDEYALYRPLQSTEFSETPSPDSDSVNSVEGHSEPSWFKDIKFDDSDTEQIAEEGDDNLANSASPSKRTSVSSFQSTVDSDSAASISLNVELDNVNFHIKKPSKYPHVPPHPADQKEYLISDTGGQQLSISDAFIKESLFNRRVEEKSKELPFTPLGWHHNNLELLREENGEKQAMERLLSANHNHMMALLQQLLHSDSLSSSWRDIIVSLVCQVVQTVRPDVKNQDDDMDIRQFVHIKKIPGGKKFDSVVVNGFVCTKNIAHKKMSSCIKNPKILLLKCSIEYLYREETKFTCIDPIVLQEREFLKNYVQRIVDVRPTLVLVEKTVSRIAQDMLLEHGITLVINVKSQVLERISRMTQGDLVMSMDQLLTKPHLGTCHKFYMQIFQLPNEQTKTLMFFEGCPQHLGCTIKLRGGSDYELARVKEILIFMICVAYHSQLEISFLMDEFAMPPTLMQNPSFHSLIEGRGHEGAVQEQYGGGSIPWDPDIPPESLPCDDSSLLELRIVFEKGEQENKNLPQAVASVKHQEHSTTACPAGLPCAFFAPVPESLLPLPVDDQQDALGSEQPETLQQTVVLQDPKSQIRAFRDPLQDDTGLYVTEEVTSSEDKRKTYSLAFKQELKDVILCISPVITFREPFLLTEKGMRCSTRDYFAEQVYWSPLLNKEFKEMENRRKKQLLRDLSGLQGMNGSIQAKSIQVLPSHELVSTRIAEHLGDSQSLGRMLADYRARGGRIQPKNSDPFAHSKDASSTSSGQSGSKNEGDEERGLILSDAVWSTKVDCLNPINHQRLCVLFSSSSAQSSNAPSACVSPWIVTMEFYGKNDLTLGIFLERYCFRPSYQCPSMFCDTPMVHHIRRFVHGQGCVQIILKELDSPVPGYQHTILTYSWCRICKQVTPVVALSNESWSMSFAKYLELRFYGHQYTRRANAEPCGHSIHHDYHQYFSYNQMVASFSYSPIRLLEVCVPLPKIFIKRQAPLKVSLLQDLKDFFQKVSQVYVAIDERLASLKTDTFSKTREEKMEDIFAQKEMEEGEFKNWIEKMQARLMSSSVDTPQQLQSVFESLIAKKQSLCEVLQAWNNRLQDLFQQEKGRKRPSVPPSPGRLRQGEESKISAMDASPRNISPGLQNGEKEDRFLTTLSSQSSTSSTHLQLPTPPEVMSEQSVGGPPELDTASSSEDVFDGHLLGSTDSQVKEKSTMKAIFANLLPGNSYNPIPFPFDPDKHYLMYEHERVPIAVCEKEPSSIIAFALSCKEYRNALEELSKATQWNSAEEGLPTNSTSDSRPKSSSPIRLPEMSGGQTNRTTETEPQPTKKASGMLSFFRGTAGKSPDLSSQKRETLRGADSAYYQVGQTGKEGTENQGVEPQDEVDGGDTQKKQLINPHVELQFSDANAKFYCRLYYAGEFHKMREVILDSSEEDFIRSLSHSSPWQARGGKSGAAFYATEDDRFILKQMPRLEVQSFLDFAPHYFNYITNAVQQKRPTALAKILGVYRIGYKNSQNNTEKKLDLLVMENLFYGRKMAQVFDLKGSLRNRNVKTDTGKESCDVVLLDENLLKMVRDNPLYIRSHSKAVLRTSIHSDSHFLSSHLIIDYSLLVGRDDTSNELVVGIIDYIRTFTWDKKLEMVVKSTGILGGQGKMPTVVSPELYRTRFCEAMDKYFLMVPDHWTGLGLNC
T2 sequence (Q9Y2I7 whole entry): as above

As a reminder, the pIC50 is the IC50 on a negative log10 scale, so that one unit is a factor of ten. On to `Cc1cccc(-c2ccn(-c3nc(N4CCOCC4)nc4c3ncn4-c3cccnc3)n2)c1` [Example 118, 4-(9-(pyridin-3-yl)-6-(3-(m-tolyl)-1H-pyrazol-1-yl)-9H-purin-2-yl)morpholine], for which the “ADP-Glo kinase assay (%, 10 nM)” value on human GST-PIKFYVE amounted to 81.33%. In addition, the pIC50 at PIKFYVE was not below 8.00.

Consider `Cc1ccc(-n2cnc3c(N/N=C/c4cccc(C)c4)nc(N4CCOCC4)nc32)nc1` [Example 143, (E)-4-(6-(2-(3-methylbenzylidene)hydrazinyl)-9-(5-methylpyridin-2-yl)-9H-purin-2-yl)morpholine], for which the “ADP-Glo kinase assay (%, 10 nM)” value on human GST-PIKFYVE was determined as 90.79%. Moreover, the pIC50 at PIKFYVE is not below 8.00.

Regarding `Cc1cccc(/C=N/Nc2nc(N3CCOCC3)nc3c2ncn3CC(F)(F)c2ccccn2)c1` [Example 26, (E)-4-(9-(2,2-difluoro-2-(pyridin-2-yl)ethyl)-6-(2-(3-methylbenzylidene)hydrazinyl)-9H-purin-2-yl)morpholine], the “ADP-Glo kinase assay (%, 10 nM)” value on human GST-PIKFYVE came out at 80.87%. On PIKFYVE, this compound showed a pIC50 of 7.70 to 8.00.

Consider `Cc1cccc(/C=N/Nc2nc(N3CCOC[C@@H]3C)nc3c2ncn3-c2cccnc2)c1` [Example 97, (S,E)-3-methyl-4-(6-(2-(3-methylbenzylidene)hydrazinyl)-9-(pyridin-3-yl)-9H-purin-2-yl)morpholine], for which, at human GST-PIKFYVE, the “ADP-Glo kinase assay (%, 10 nM)” value turned out to be 78.47%. On PIKFYVE, this compound had a pIC50 of 7.70 to 8.00.

As for `COc1ccc(-n2cnc3c(N/N=C/c4cccc(C)c4)nc(N4CCOCC4)nc32)cn1` [Example 113, (E)-4-(9-(6-methoxypyridin-3-yl)-6-(2-(3-methylbenzylidene)hydrazinyl)-9H-purin-2-yl)morpholine], the “ADP-Glo kinase assay (%, 10 nM)” value at human GST-PIKFYVE is 87.10%. On PIKFYVE, this compound gave a pIC50 not below 8.00.

On to `COc1cccc(-c2cccc3c(N/N=C/c4cccc(C)c4)nc(N4CCOCC4)nc23)c1` [Example 211, (E)-4-(8-(3-methoxyphenyl)-4-(2-(3-methylbenzylidene)hydrazinyl)quinazolin-2-yl)morpholine], for which the “ADP-Glo kinase assay (%, 10 nM)” value at human GST-PIKFYVE was found to be 64.14%. The same compound had a pIC50 at PIKFYVE of 7.52 to 7.70.

On to `Cc1cccc(/C=N/Nc2nc(N3CCOCC3)nc3c2ncn3-c2cc(C)ns2)c1` [Example 148, (E)-4-(6-(2-(3-methylbenzylidene)hydrazinyl)-9-(3-methylisothiazol-5-yl)-9H-purin-2-yl)morpholine], for which, on human GST-PIKFYVE, the “ADP-Glo kinase assay (%, 10 nM)” value is given as 73.88%. Also, the pIC50 against PIKFYVE was not below 8.00.

As to `COc1cccc(-n2cnc3c(-n4ccc(-c5cccc(C)c5)n4)nc(N4CCOCC4)nc32)c1` [Example 137, 4-(9-(3-methoxyphenyl)-6-(3-(m-tolyl)-1H-pyrazol-1-yl)-9H-purin-2-yl)morpholine], the “ADP-Glo kinase assay (%, 10 nM)” value on human GST-PIKFYVE was 81.44%. This compound gave a pIC50 at PIKFYVE not below 8.00.

For `COc1ccc(-c2cccc3c(N/N=C/c4cccc(C)c4)nc(N4CCOCC4)nc23)cc1` [Example 213, (E)-4-(8-(4-methoxyphenyl)-4-(2-(3-methylbenzylidene)hydrazinyl)quinazolin-2-yl)morpholine], on human GST-PIKFYVE, the “ADP-Glo kinase assay (%, 10 nM)” value stood at 68.30%. In addition, the pIC50 at PIKFYVE was 7.70 to 8.00.

Consider `Cc1cccc(/C=N/Nc2nc(N3CCOCC3)nc3c2ncn3-c2ccccc2)c1` [Example 119, (E)-4-(6-(2-(3-methylbenzylidene)hydrazinyl)-9-phenyl-9H-purin-2-yl)morpholine], for which, at human GST-PIKFYVE, the “ADP-Glo kinase assay (%, 10 nM)” value is recorded as 80.61%. The same compound showed a negative logarithm of the IC50 (pIC50) at PIKFYVE not below 8.00.

`Cc1cccc(/C=N/Nc2nc(N3CCOCC3)nc3c2ncn3CC(=O)c2cccc(C(F)(F)F)c2)c1` [Example 44, (E)-2-(6-(2-(3-methylbenzylidene)hydrazinyl)-2-morpholino-9H-purin-9-yl)-1-(3-(trifluoromethyl)phenyl)ethan-1-one]: the “ADP-Glo kinase assay (%, 10 nM)” value at human GST-PIKFYVE came to 62.80%. Also, the negative-log IC50 (pIC50) at PIKFYVE is 7.52 to 7.70.

`Cc1cccc(/C=N/Nc2nc(N3CCOCC3)nc3c2ncn3-c2cncc(C)c2)c1` [Example 145, (E)-4-(6-(2-(3-methylbenzylidene)hydrazinyl)-9-(5-methylpyridin-3-yl)-9H-purin-2-yl)morpholine]: the “ADP-Glo kinase assay (%, 10 nM)” value at human GST-PIKFYVE is recorded as 94.29%. At PIKFYVE, the pIC50 was not below 8.00.

In the case of `Cc1cccc(/C=N/Nc2nc(N3CCOCC3)nc3c2ncn3CC2(C)COC2)c1` [Example 74, (E)-4-(6-(2-(3-methylbenzylidene)hydrazinyl)-9-((3-methyloxetan-3-yl)methyl)-9H-purin-2-yl)morpholine], the “ADP-Glo kinase assay (%, 10 nM)” value at human GST-PIKFYVE turned out to be 69.71%. Moreover, the negative-log IC50 (pIC50) at PIKFYVE is 7.52 to 7.70.

Take `Cc1cccc(/C=N/Nc2nc(N3CCOCC3)nc3c2ncn3CC(=O)c2ccc(C(F)(F)F)cc2)c1` [Example 45, (E)-2-(6-(2-(3-methylbenzylidene)hydrazinyl)-2-morpholino-9H-purin-9-yl)-1-(4-(trifluoromethyl)phenyl)ethan-1-one]: the “ADP-Glo kinase assay (%, 10 nM)” value at human GST-PIKFYVE turned out to be 67.70%. Moreover, the pIC50 against PIKFYVE was 7.52 to 7.70.

For the compound `Cc1cccc(/C=N/Nc2nc(N3CCOCC3)nc3c2ncn3CC(=O)c2ccc(C#N)cc2)c1` [Example 35, (E)-4-(2-(6-(2-(3-methylbenzylidene)hydrazinyl)-2-morpholino-9H-purin-9-yl)acetyl)benzonitrile], the “ADP-Glo kinase assay (%, 10 nM)” value on human GST-PIKFYVE is 70.11%. Besides, the pIC50 against PIKFYVE is 7.70 to 8.00.

In the case of `Cc1cccc(/C=N/Nc2nc(N3CCOCC3)nc3c2ncn3Cc2ccccn2)c1` [Example 20, (E)-4-(6-(2-(3-methylbenzylidene)hydrazinyl)-9-(pyridin-2-ylmethyl)-9H-purin-2-yl)morpholine], the “ADP-Glo kinase assay (%, 10 nM)” value on human GST-PIKFYVE came to 78.53%. The compound also gave a negative-log IC50 (pIC50) against PIKFYVE of 7.70 to 8.00.

As for `Cc1cccc(/C=N/Nc2nc(N3CCOCC3)nc3c2ncn3CC(=O)c2cccnc2)c1` [Example 28, (E)-2-(6-(2-(3-methylbenzylidene)hydrazinyl)-2-morpholino-9H-purin-9-yl)-1-(pyridin-3-yl)ethan-1-one], the “ADP-Glo kinase assay (%, 10 nM)” value on human GST-PIKFYVE was found to be 65.48%. The same compound had a negative logarithm of the IC50 (pIC50) against PIKFYVE of 7.52 to 7.70.

Turning to `Cc1cccc(/C=N/Nc2nc(N3CCOCC3)nc3c2ncn3CC(=O)c2ccc(F)cn2)c1` [Example 53, (E)-1-(5-fluoropyridin-2-yl)-2-(6-(2-(3-methylbenzylidene)hydrazinyl)-2-morpholino-9H-purin-9-yl)ethan-1-one], the “ADP-Glo kinase assay (%, 10 nM)” value on human GST-PIKFYVE is listed as 70.90%. Moreover, at PIKFYVE, the pIC50 is 7.52 to 7.70.

As for `Cc1cccc(/C=N/Nc2nc(N3CCOCC3)nc3c2ncn3-c2ccc(C(F)(F)F)cc2)c1` [Example 104, (E)-4-(6-(2-(3-methylbenzylidene)hydrazinyl)-9-(4-(trifluoromethyl)phenyl)-9H-purin-2-yl)morpholine], at human GST-PIKFYVE, the “ADP-Glo kinase assay (%, 10 nM)” value turned out to be 68.18%. At PIKFYVE, this compound had a negative logarithm of the IC50 (pIC50) of 7.70 to 8.00.

In the case of `Cc1cccc(/C=N/Nc2nc(N3CCOCC3)nc3c2ncn3CC(C)C)c1` [Example 17, (E)-4-(9-isobutyl-6-(2-(3-methylbenzylidene)hydrazinyl)-9H-purin-2-yl)morpholine], the “ADP-Glo kinase assay (%, 10 nM)” value on human GST-PIKFYVE is listed as 69.26%. The compound further had a negative logarithm of the IC50 (pIC50) on PIKFYVE of 7.70 to 8.00.

As to `Cc1cccc(/C=N/Nc2nc(N3CCOCC3)nc3c2ncn3CC(=O)c2ccncc2)c1` [Example 32, (E)-2-(6-(2-(3-methylbenzylidene)hydrazinyl)-2-morpholino-9H-purin-9-yl)-1-(pyridin-4-yl)ethan-1-one], the “ADP-Glo kinase assay (%, 10 nM)” value at human GST-PIKFYVE is 59.60%. The compound further showed a pIC50 against PIKFYVE of 7.52 to 7.70.
